We go through 27 compounds from patent US4552898A, “[3.2.0]Bicycloheptanone oxime ethers with valuable therapeutic properties” (Syntex (U.S.A.) Inc., priority 1983, dated 1985).

A word on the IC50: it is the concentration that inhibits the measured activity by half. By LD50 is commonly meant the dose expected to kill half of the subjects tested. The low end stands for a more toxic substance, the high end for a less toxic substance.

The first series deals with human platelet-rich plasma. The series is described as follows: In vitro human platelet aggregation inhibition (turbidimetric). The class given is cell-based. The note with it: ADP inducer. The method, then:
Biological activity of the claimed compounds is tested by in vitro human platelet aggregation assay. This assay determines the effectiveness of the compounds in inhibiting the platelet aggregation
Immediately thereafter, the platelets start to secrete large quantities of adenosine diphosphate (ADP) which, in turn activates the other platelets that adhere to the original platelets and eventually form the plug which closes the rupture of the vascular wall. In medical parlance the first process is called collagen-induced primary platelet aggregation, the second process is called ADP-mediated secondary platelet aggregation. This situation can be artificially simulated by natural platelet aggregation inducers such as collagen, ADP, or arachidonic acid to the human platelet-rich plasma.
The blood samples used for the assay are collected into sodium citrate anticoagulant of a final concentration of 0.38%. The platelet-rich plasma is collected after centrifugation at 200 rpm at room temperature. To determine whether the platelet-rich plasma needs dilution to obtain optimal optical density, citrated plasma containing […] platelets per milliliter is pipetted into a Spinco transparent plastic centrifuge tube. The tube is inserted into a Unicam SP 400 absorptiometer and the light at the wave-length of 600 mμ is passed through the tube. The dark current is set at infinity and the optical density of distilled water at zero. The plasma is stirred by a magnetic stirrer. If necessary, platelet-rich plasma is diluted with 0.154M sodium chloride to obtain appropriate optical density
Platelet-rich plasma of appropriate optical density is mixed with appropriate concentration of tested compounds to make up 1 ml of mixture of platelet-rich plasma and tested compound. The concentration of each tested compound varied from 1.0×10^-5 moles to 1.0×10^-9 moles. Each concentration is tested individually by number of repetitions varying from 1 to 6. Each sample mixture consisting of platelet-rich plasma and tested compound is incubated for about 3 to 5 minutes under constant stirring at 500 rpm at 30° C. Thereafter, a predetermined optimal concentration of platelet aggregation inducer is added to each sample mixture. Inducers which are used for testing may be chosen from: […]
Adenosine Diphosphate (ADP) is purchased from Sigma Chemical Company. ADP inducer solution of final concentration of 5 μmol is prepared by dissolving 214 mg of ADP in 1 ml of tris buffer (0.01M at pH 9 at 22° C.). […]
A tube with the mixture of platelet-rich plasma, tested compound and ADP inducer (5 μmol/10 μl) is inserted into the absorptiometer and optical density changes are recorded on chart. Aggregation of the platelets is determined from maximal optical density change. Maximal optical density of a mixture of platelet-rich plasma with inducer, but without the tested compounds, is taken as 100% of platelet aggregation. The maximal optical density of the sample mixture of platelet-rich plasma, ADP inducer and appropriate amount of tested compound is compared to the maximal optical density of the sample without tested compound and inhibitory effectiveness of tested compounds is calculated. For each sample the percentage of the platelet aggregation is calculated and if more than one measurement with the same concentration of the tested compounds are done, the final value is expressed as an average of all measurements with ±S.E. The inhibitory concentration is the effective concentration of tested compound which is able to prevent 50% of the platelet aggregation, where, without the tested compound, the platelet aggregation would have been 100%. PGE1 has an IC50 of 2-8×10^-8 M.
With `CCCCCC(O)C#CC1CC2C(=NOCC(=O)O)CC2C1O` (stereo not drawn) [Compound 1, N--[2-endo-hydroxy-3-exo-(3αS--hydroxyoct-1-ynyl)bicyclo[3.2.0]hept-6-ylidene]aminooxyacetic acid], inhibition was half-maximal at 18.6 nM (IC50).

Take `O=C(O)CON=C1CC2C1CC(/C=C/C(O)C1CCCC1)C2O` (stereo not drawn) [Compound 5]: the IC50 is 11.2 nM.

On to `CCCCCC(O)C#CC1CC2C(=NOCC(=O)O)CC2C1O` (stereo not drawn) [Compound 11, N--[2-endo-hydroxy-3-exo-(3αβS--hydroxyoct-1-ynyl)bicyclo[3.2.0]hept-6-ylidene]aminooxyacetic acid], for which half-maximal inhibition (IC50) required 70 nM.

Consider `CCCCCC(O)C#CC1CC2C(=NOCCC(=O)O)CC2C1O` (stereo not drawn) [Compound 12, N--[2-endo-hydroxy-3-exo-(3αS--hydroxyoct-1-ynyl)bicyclo[3.2.0]hept-6-ylidene]-3-aminooxypropionic acid], for which the IC50 was 31 nM.

`O=C(O)CCON=C1CC2C1CC(/C=C/C(O)C1CCCC1)C2O` (stereo not drawn) [Compound 16, N--[2-endo-hydroxy-3-exo-(3α-hydroxy-3-cyclopentylprop-1-trans-enyl)bicyclo[3.2.0]hept-6-ylidene]-3-aminooxypropionic acid] had an IC50 of 10.5 nM.

Regarding `O=C(O)CCON=C1CC2C1CC(/C=C/C(O)C1CCCCC1)C2O` (stereo not drawn) [Compound 19, N--[2-endo-hydroxy-3-exo-(3α-hydroxy-3-cyclohexylprop-1-trans-enyl)bicyclo[3.2.0]hept-6-ylidene]-3-aminooxypropionic acid], the IC50 was found to be 81 nM.

On to `CCCCCC(O)C#CC1CC2C(=NOCCC(=O)O)CC2C1O` (stereo not drawn) [Compound 23, N--[2-endo-hydroxy-3-exo-(3-hydroxyoct-1-ynyl)bicyclo[3.2.0]hept-6-ylidene] -3-aminooxypropionic acid], for which 175 nM corresponded to half-maximal inhibition (IC50).

Consider `CCCCCC(O)C#CC1CC2C(=NOCCC(=O)O)CC2C1O` (stereo not drawn) [Compound 24, N--[2-endo-hydroxy-3-exo-(3αβS--hydroxyoct-1-ynyl)bicyclo[3.2.0]hept-6-ylidene]-3-aminooxypropionic acid], for which the midpoint of inhibition, the IC50, lay at 43 nM.

Staying with this series, now noted: Homo sapiens, Platelet, ADP inducer.
In turn, `CCCCCC(O)C=CC1CC2C(=NOCC(=O)O)CC2C1O` (stereo not drawn) [Compound 2, N--[2-endo-hydroxy-3-exo-(3αS--hydroxyoct-1-trans-enyl)bicyclo[3.2.0]hept-6-ylidene]aminooxyacetic acid] returned an IC50 of 89 nM.

For the compound `CCCCCC(O)CCC1CC2C(=NOCC(=O)O)CC2C1O` (stereo not drawn) [Compound 3, N--[2-endo-hydroxy-3-exo-(3αβS--hydroxyoct-1-yl)bicyclo[3.2.0]hept-6-ylidene]aminooxyacetic acid], the IC50 was 1400 nM.

As for `O=C(O)CON=C1CC2C1CC(C#CC(O)C1CCCC1)C2O` (stereo not drawn) [Compound 4, N--[2-endo-hydroxy-3-exo-(3-hydroxy-3-cyclopentylprop-1-ynyl)bicyclo[3.2.0]hept-6-ylidene]aminooxyacetic acid], the concentration for half-maximal inhibition (IC50) amounted to 12.5 nM.

For the compound `O=C(O)CON=C1CC2C1CC(CCC(O)C1CCCC1)C2O` (stereo not drawn) [Compound 6, N--[2-endo-hydroxy-3-exo-(3-hydroxy-3-cyclopentylprop-1-yl)bicyclo[3.2.0]hept-6-ylidene]aminooxyacetic acid], the 50% inhibitory concentration (IC50) turned out to be 1000 nM.

With `O=C(O)CON=C1CC2C1CC(C#CC(O)C1CCCCC1)C2O` (stereo not drawn) [Compound 7, N--[2-endo-hydroxy-3-exo-(3-hydroxy-3-cyclohexylprop-1-ynyl)bicyclo[3.2.0]hept-6-ylidene]aminooxyacetic acid], the half-maximal inhibitory concentration (IC50) came to 24 nM.

`O=C(O)CON=C1CC2C1CC(CCC(O)C1CCCCC1)C2O` (stereo not drawn) [Compound 8, N--[2-endo-hydroxy-3-exo-(3-hydroxy-3-cyclohexylprop-1-yl)bicyclo[3.2.0]hept-6-ylidene]aminooxyacetic acid] had an IC50 of 88 nM.

The compound `CCCCCCCC(O)C#CC1CC2C(=NOCC(=O)O)CC2C1O` (stereo not drawn) [Compound 9, N--[2-endo-hydroxy-3-exo-(3-hydroxydec-1-ynyl)bicyclo[3.2.0]hept-6-ylidene]aminooxyacetic acid] came in with an IC50 of 32 nM.

As for `CCCCCC(O)C=CC1CC2C(=NOCCC(=O)O)CC2C1O` (stereo not drawn) [Compound 13, N--[2-endo-hydroxy-3-exo-(3αS--hydroxyoct-1-trans-enyl)bicyclo[3.2.0]hept-6-ylidene]-3-aminooxypropionic acid], the midpoint of inhibition, the IC50, lay at 6.9 nM.

On to `CCCCCC(O)CCC1CC2C(=NOCCC(=O)O)CC2C1O` (stereo not drawn) [Compound 14, N--[2-endo-hydroxy-3-exo-(3αβS--hydroxyoct-1-yl)bicyclo[3.2.0]hept-6-ylidene]-3-aminooxypropionic acid], for which inhibition was half-maximal at 2200 nM (IC50).

`O=C(O)CCON=C1CC2C1CC(C#CC(O)C1CCCC1)C2O` (stereo not drawn) [Compound 15, N--[2-endo-hydroxy-3-exo-(3-hydroxy-3-cyclopentylprop-1-ynyl)bicyclo[3.2.0]hept-6-ylidene]-3-aminooxypropionic acid] yielded an IC50 of 31 nM.

`O=C(O)CCON=C1CC2C1CC(CCC(O)C1CCCC1)C2O` (stereo not drawn) [Compound 17, N--[2-endo-hydroxy-3-exo-(3-hydroxy-3-cyclopentylprop-1-yl)bicyclo[3.2.0]hept-6-ylidene]-3-aminooxypropionic acid] returned a half-maximal inhibitory concentration (IC50) of 1020 nM.

`O=C(O)CCON=C1CC2C1CC(C#CC(O)C1CCCCC1)C2O` (stereo not drawn) [Compound 18, N--[2-endo-hydroxy-3-exo-(3-hydroxy-3-cyclohexylprop-1-ynyl)bicyclo[3.2.0]hept-6-ylidene]-3-aminooxypropionic acid] came in with an IC50 of 8.4 nM.

As for `O=C(O)CCON=C1CC2C1CC(CCC(O)C1CCCCC1)C2O` (stereo not drawn) [Compound 20, N--[2-endo-hydroxy-3-exo-(3-hydroxy-3-cyclohexylprop-1-yl)bicyclo[3.2.0]hept-6-ylidene]-3-aminooxypropionic acid], the IC50 was found to be 2350 nM.

`CCCCCCCC(O)C#CC1CC2C(=NOCCC(=O)O)CC2C1O` (stereo not drawn) [Compound 21, N--[2-endo-hydroxy-3-exo-(3-hydroxydec-1-ynyl)bicyclo[3.2.0]hept-6-ylidene]-3-aminooxypropionic acid] gave an IC50 of 117 nM.

`CCCCCCCC(O)CCC1CC2C(=NOCCC(=O)O)CC2C1O` (stereo not drawn) [Compound 22, N--[2-endo-hydroxy-3-exo-(3-hydroxydec-1-yl)bicyclo[3.2.0]hept-6-ylidene]-3-aminooxypropionic acid] gave an IC50 of 1300 nM.

`CCCCCC(O)C#CC1CC2C(=NOCCCC(=O)O)CC2C1O` (stereo not drawn) [Compound 25, N--[2-endo-hydroxy-3-exo-(3αβS--hydroxyoct-1-ynyl)bicyclo[3.2.0]hept-6-ylidene]-4-aminooxybutyric acid] had an IC50 of 420 nM.

Consider `CCCCCC(O)C#CC1C(O)CC2C(=NOCCC(=O)O)CC21` (stereo not drawn) [Compound 26, N--[3-endo-hydroxy-2-exo-(3αβS--hydroxyoct-1-ynyl)bicyclo[3.2.0]hept-6-ylidene]-3-aminooxypropionic acid], for which the IC50 amounted to 21000 nM.

`CCCCCC(O)C#CC1C(O)CC2C(=NOCCCC(=O)O)CC21` (stereo not drawn) [Compound 27, N--[3-endo-hydroxy-2-exo-(3αβS--hydroxyoct-1-ynyl)bicyclo[3.2.0]hept-6-ylidene]-4-aminooxybutyric acid] showed an IC50 of 1100 nM.

Tested on in the next series: not listed separately
The series can be described thus: Acute toxicity in mice, single intraperitoneal administration. Also noted: species or system Male Sim: (SW)f BR mice. The note with it: mouse, in vivo, ip. The method, then: Male Sim: (SW)f BR mice weighing approximately 25 g were randomly assigned to treatment groups of 6 animals, caged together, and were given food and water ad libitum.
The test material was prepared as an aqueous solution or suspension in CMC vehicle (sodium carboxymethyl cellulose, 0.5 g; sodium chloride, 0.9 g; benzyl alcohol, 0.9 ml; Tween 80, 0.4 ml; and water to 100 ml). The test material and the control vehicle were administered once by the indicated route at a dose level of 10 ml per kg body weight.
Following administration of the test material on day 1, animals were observed daily and any deaths were recorded.
For `CCCCCC(O)C#CC1CC2C(=NOCCC(=O)O)CC2C1O` (stereo not drawn) [Test Material], the LD50 is over 120 mg/kg.
